According to patent US20240239790A1, “7-Morpholino-1,6-Naphthyridin-5-yl Derivatives and Pharmaceutical Compositions Thereof Useful as DNA-PK Inhibitor” (adMare Therapeutics Society, priority 2021, published 2024):
Like-named read-outs stand apart in the source and are kept apart here. Marks after values point to notes of the source that are not given here. Each block holds one compound with its values, some of them ahead of it.

Tests used:
[1] = target: T1, DNA-PK phosphorylation at Serine 2056 (Homo sapiens, UniProt P78527); assay: Cellular Assay for Inhibition of DNA-PK Phosphorylation at Serine 2056 in FaDu cells (sandwich ELISA, neocarzinostatin); format: cell-based; conditions: pSer2056 DNA-PK, neocarzinostatin 1 μg/mL, Table 1
T1 construct: FaDu cells were purchased from ATCC; host or cells: FaDu
How it was run: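 FaDu cells pre-treated with compound (0.3% DMSO) for 1 h, then neocarzinostatin 1 μg/mL final added for 2 h to induce DSBs. Protein-normalised lysates read by sandwich ELISA for total and pSer2056 DNA-PK; % inhibition normalised between DMSO and NCS controls, IC50 from variable-slope log(inhibitor) fit.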

[2] = Microsomal Stability Assay, mouse liver microsomes; format: in vitro ADME; conditions: for microsomal CLint at 0.1 uM: male, CD-1, pH 7.4, mouse liver microsomes 0.1 mg/mL, 0.1 uM compound; for Microsomal Stability Mouse % rem. 60 min: mouse liver microsomes
Method: (§1) Samples were then mixed and centrifuged. Supernatants were used for HPLC-MS/MS analysis. […] Peak areas corresponding to the test compound were recorded.

[3] = Microsomal Stability Assay, human liver microsomes; format: in vitro ADME; conditions: for microsomal CLint at 0.1 uM: both sexes, pH 7.4, human liver microsomes 0.1 mg/mL, 0.1 uM compound; for Microsomal Stability Human % rem. 60 min: human liver microsomes
Method: as §1

[4] = Pharmacokinetic study in mice (IV and PO), plasma; format: in vivo, mouse; conditions: for Rsq: Mouse Plasma, fit of NCA; for Cmax: read-out: Cmax (5 min)
Method: Pharmacokinetic analysis of compounds was conducted following bolus intravenous (IV) or bolus oral (PO) gavage in mice. Female mice (C57BL/6) in the 17-26 g range were weighed, and then administered an individually prescribed dose volume based on body weight of formulated compound via the intravenous (IV; tail vein) or oral gavage (PO) route (IV 5 mL/kg; PO 10 mL/kg). At selected timepoints post administration, blood was collected into vials with anticoagulant, processed for plasma by centrifugation, and then kept frozen ([…]) until analysis.
The in-vivo study plasma samples were analyzed using Ultra Performance Liquid Chromatography (UPLC) with tandem mass spectrometry (MS/MS) detection in multiple reaction monitoring (MRM) mode. A generic bioanalytical method involving plasma sample extraction and cleanup by protein precipitation with acetonitrile was used followed by UPLC-MS/MS analysis.
A brief example of a generic bioanalytical UPLC-MS/MS method used for analysis of compounds in the in-vivo study plasma samples is as follows. Plasma samples were spiked with internal standard prior to extraction and cleanup by protein precipitation with ice cold acetonitrile containing 0.1% (v/v) ammonium hydroxide at a ratio of 3:1 (solvent:plasma) and centrifuged at 18213 rcf for 15 minutes at 4° C. to pellet precipitates. Aliquots of supernatants were transferred to a 96-well plate and evaporated to dryness at 40° C. under a stream of nitrogen gas. Samples were reconstituted in 50:50 acetonitrile/10 mM ammonium acetate buffer pH 8, mixed thoroughly and analyzed using Ultra Performance Liquid Chromatography (UPLC) with tandem mass spectrometry (MS/MS) detection in multiple reaction monitoring (MRM) mode. Matrix-matched calibration standards and quality control (QC) samples were prepared in naïve C57Bl/6 mouse plasma. The UPLC column used was Waters Acquity UPLC BEH C18 1.7 um, 2.1 mm×50 mm (with guard column). The UPLC mobile phase consisted of: Mobile phase A: 10 mM ammonium acetate in Water pH 8, and Mobile phase B: Acetonitrile. Separation was accomplished with a linear gradient of 5% mobile phase B to 95% mobile phase B in 2 min, and a flow rate of 0.35 mL/min. The MS/MS data acquisition was accomplished using 3 MRM Transitions in ESI+ mode. Parent ion mass 508.37 m/z-to-Daughter ions (m/z) 117.05, 232.13 and 270.22. The quantitation of concentrations in test samples was achieved by matrix-matched calibration with normalization using an internal standard. Data acquisition and analysis were performed using Waters MassLynx software with TargetLynx application manager.
Estimation of PK parameters was performed using independent noncompartmental model method by PHOENIX WinNonlin software.

[5] = female, C57BL/6, po, mouse plasma, PC, 3 mg/kg
[6] = female, C57BL/6, mouse plasma, IV, 1 mg/kg
[7] = female, C57BL/6, mouse plasma, IV, 3 mg/kg
[8] = female, C57BL/6, mouse plasma, PO, 10 mg/kg
[9] = female, C57BL/6, mouse plasma, IV, 3 mg/kg, read-out: AUCINF—obs
[10] = female, C57BL/6, mouse plasma, PO, 10 mg/kg, read-out: AUCINF—obs

SMILES: CN1CCN(CCOc2cnc(N[C@H]3CC[C@@H](Oc4nc(N5CCOCC5)cc5ncccc45)CC3)nc2)CC1 [Compound 69, 5-(2-(4-Methylpiperazin-1-yl)ethoxy)-N-((1s,4s)-4-((7-morpholino-1,6-naphthyridin-5-yl)oxy)cyclohexyl)pyrimidin-2-amine]
IC50 [1]: < 100 nM
microsomal CLint at 0.1 uM [2]: > 116 µL/min/mg
Microsomal Stability Mouse % rem. 60 min [2]: F (% remaining = 25-50%)
microsomal CLint at 0.1 uM [3]: < 116 µL/min/mg
Microsomal Stability Human % rem. 60 min [3]: G (% remaining = 50-75%)
AUC(0-t) [4, 7]: 1630 ng·h/mL
half-life [4, 7]: 4.63 h
AUC(0-inf) [4, 9]: 2270 ng·h/mL
Cmax [4, 7]: 611 ng/mL
AUC(0-t) [4, 8]: 5680 ng·h/mL
half-life [4, 8]: 5.4 h
AUC(0-inf) [4, 10]: 6070 ng·h/mL
Cmax [4, 8]: 549 ng/mL
AUC—% Extrap—obs ([4]; mouse plasma, IV, 3 mg/kg): 28.28%
Cl_obs ([4]; mouse plasma, IV, 3 mg/kg): 1321.88 mL/h/kg
Vz_obs ([4]; mouse plasma, IV, 3 mg/kg): 8824.88 mL/kg
AUC—% Extrap—obs ([4]; mouse plasma, PO, 10 mg/kg): 6.56%
Cl_obs ([4]; mouse plasma, PO, 10 mg/kg): 1646.25 mL/h/kg
Vz_obs ([4]; mouse plasma, PO, 10 mg/kg): 12835.77 mL/kg
F ([4]; mouse, PO, 10 mg/kg): 105%

SMILES: O=C(COc1cnc(N[C@H]2CC[C@@H](Oc3nc(N4CCOCC4)cc4ncccc34)CC2)nc1)N1CCC1 [Compound 75, 1-(Azetidin-1-yl)-2-((2-(((1s,4s)-4-((7-morpholino-1,6-naphthyridin-5-yl)oxy)cyclohexyl)amino)pyrimidin-5-yl)oxy)ethan-1-one]
IC50 [1]: < 100 nM
microsomal CLint at 0.1 uM [2]: < 116 µL/min/mg
Microsomal Stability Mouse % rem. 60 min [2]: G (% remaining = 50-75%)
microsomal CLint at 0.1 uM [3]: > 116 µL/min/mg
Microsomal Stability Human % rem. 60 min [3]: F (% remaining = 25-50%)
AUC(0-t) [4, 7]: 7960 ng·h/mL
half-life [4, 7]: 1.67 h
AUC(0-inf) [4, 9]: 8170 ng·h/mL
Cmax [4, 7]: 6020 ng/mL
AUC(0-t) [4, 8]: 18200 ng·h/mL
half-life [4, 8]: 2.17 h
AUC(0-inf) [4, 10]: 18200 ng·h/mL
Cmax [4, 8]: 5590 ng/mL
AUC—% Extrap—obs ([4]; mouse plasma, IV, 3 mg/kg): 2.63%
Cl_obs ([4]; mouse plasma, IV, 3 mg/kg): 367.01 mL/h/kg
Vz_obs ([4]; mouse plasma, IV, 3 mg/kg): 885.15 mL/kg
AUC—% Extrap—obs ([4]; mouse plasma, PO, 10 mg/kg): 0.07%
Cl_obs ([4]; mouse plasma, PO, 10 mg/kg): 548.06 mL/h/kg
Vz_obs ([4]; mouse plasma, PO, 10 mg/kg): 1715.97 mL/kg
F ([4]; mouse, PO, 10 mg/kg): 69%

SMILES: CN(C)C(=O)Cn1ccc2nc(N[C@H]3CC[C@@H](Oc4nc(N5CCOCC5)cc5ncccc45)CC3)ncc21 [Compound 86, N,N-Dimethyl-2-(2-(((1s,4s)-4-((7-morpholino-1,6-naphthyridin-5-yl)oxy)cyclohexyl)amino)-5H-pyrrolo[3,2-d]pyrimidin-5-yl)acetamide]
IC50 [1]: < 100 nM
microsomal CLint at 0.1 uM [2]: < 116 µL/min/mg
Microsomal Stability Mouse % rem. 60 min [2]: G (% remaining = 50-75%)
microsomal CLint at 0.1 uM [3]: < 116 µL/min/mg
Microsomal Stability Human % rem. 60 min [3]: G (% remaining = 50-75%)
AUC(0-t) [4, 7]: 4100 ng·h/mL
half-life [4, 7]: 1.77 h
AUC(0-inf) [4, 9]: 4160 ng·h/mL
Cmax [4, 7]: 6450 ng/mL
AUC(0-t) [4, 8]: 2620 ng·h/mL
half-life [4, 8]: 2.92 h
AUC(0-inf) [4, 10]: 2630 ng·h/mL
Cmax [4, 8]: 589 ng/mL
AUC—% Extrap—obs ([4]; mouse plasma, IV, 3 mg/kg): 1.44%
Cl_obs ([4]; mouse plasma, IV, 3 mg/kg): 721.34 mL/h/kg
Vz_obs ([4]; mouse plasma, IV, 3 mg/kg): 1842.6 mL/kg
AUC—% Extrap—obs ([4]; mouse plasma, PO, 10 mg/kg): 0.47%
Cl_obs ([4]; mouse plasma, PO, 10 mg/kg): 3799.7 mL/h/kg
Vz_obs ([4]; mouse plasma, PO, 10 mg/kg): 16019 mL/kg
F ([4]; mouse, PO, 10 mg/kg): 19%

SMILES: CN(C)C(=O)Cn1ccc(C(=O)N[C@H]2CC[C@@H](Oc3nc(N4CCOCC4)cc4ncccc34)CC2)c1 [Compound 141, 1-(2-(dimethylamino)-2-oxoethyl)-N-((1s,4s)-4-((7-morpholino-1,6-naphthyridin-5-yl)oxy)cyclohexyl)-1H-pyrrole-3-carboxamide]
IC50 [1]: < 100 nM
microsomal CLint at 0.1 uM [2]: < 116 µL/min/mg
Microsomal Stability Mouse % rem. 60 min [2]: G (% remaining = 50-75%)
microsomal CLint at 0.1 uM [3]: < 116 µL/min/mg
Microsomal Stability Human % rem. 60 min [3]: G (% remaining = 50-75%)

SMILES: CN(C)C(=O)COc1cnc(N[C@H]2CC[C@@H](Oc3nc(N4CCOCC4)cc4ncc(NS(C)(=O)=O)cc34)CC2)nc1 [Compound 182, N,N-dimethyl-2-((2-(((1s,4s)-4-((3-(methylsulfonamido)-7-morpholino-1,6-naphthyridin-5-yl)oxy)cyclohexyl)amino)pyrimidin-5-yl)oxy)acetamide]
IC50 [1]: 100 to 1000 nM
microsomal CLint at 0.1 uM [2]: < 116 µL/min/mg
Microsomal Stability Mouse % rem. 60 min [2]: G (% remaining = 50-75%)
microsomal CLint at 0.1 uM [3]: < 116 µL/min/mg
Microsomal Stability Human % rem. 60 min [3]: G (% remaining = 50-75%)

Continued, values first:

IC50 [1]: < 100 nM
microsomal CLint at 0.1 uM [2]: < 116 µL/min/mg
Microsomal Stability Mouse % rem. 60 min [2]: G (% remaining = 50-75%)
microsomal CLint at 0.1 uM [3]: > 116 µL/min/mg
Microsomal Stability Human % rem. 60 min [3]: E (% remaining = 0-25%)
AUC(0-t) [4, 5]: 7650 ng·h/mL
Cmax at 5 min [4, 5]: 2220 ng/mL
half-life [4, 5]: 2.33 h
AUC(0-inf) ([4]; female, C57BL/6, po, mouse plasma, PC, 3 mg/kg, read-out: AUCINF—obs): 7660 ng·h/mL
AUC(0-t) [4, 6]: 3700 ng·h/mL
C0 [4, 6]: 3310 ng/mL
Cmax at 5 min [4, 6]: 2820 ng/mL
half-life [4, 6]: 1.69 h
AUC(0-inf) ([4]; female, C57BL/6, mouse plasma, IV, 1 mg/kg, read-out: AUCINF—obs): 3710 ng·h/mL
AUC—% Extrap—obs ([4]; mouse plasma, IV, 1 mg/kg): 0.10%
Cl_obs ([4]; mouse plasma, IV, 1 mg/kg): 264 mL/h/kg
Vz_obs ([4]; mouse plasma, IV, 1 mg/kg): 646 mL/kg
AUC—% Extrap—obs ([4]; mouse plasma, PC, 3 mg/kg): 0.07%
Cl_obs ([4]; mouse plasma, PC, 3 mg/kg): 358^b mL/h/kg
Vz_obs ([4]; mouse plasma, PC, 3 mg/kg): 1205^a mL/kg
F ([4]; mouse, PC, 3 mg/kg): 74%
SMILES: CN(C)C(=O)COc1cnc(N[C@H]2CC[C@@H](Oc3nc(N4CCOCC4)cc4ncccc34)CC2)nc1 [Compound 54, N,N-Dimethyl-2-((2-(((1s,4s)-4-((7-morpholino-1,6-naphthyridin-5-yl)oxy)cyclohexyl)amino)pyrimidin-5-yl)oxy)acetamide]

IC50 [1]: < 100 nM
microsomal CLint at 0.1 uM [2]: < 116 µL/min/mg
Microsomal Stability Mouse % rem. 60 min [2]: H (% remaining = 75-100%)
microsomal CLint at 0.1 uM [3]: > 116 µL/min/mg
Microsomal Stability Human % rem. 60 min [3]: F (% remaining = 25-50%)
Rsq ([4]; IV, 3 mg/kg): 0.97
Rsq ([4]; PO, 10 mg/kg): 0.93
F ([4]; Mouse, PO 10 mg/kg vs IV 3 mg/kg): 72%
AUC(0-t) [4, 7]: 5210 ng·h/mL
Cmax at 5 min [4, 7]: 4900 ng/mL
half-life [4, 7]: 2.2 h
AUC(0-inf) ([4]; female, C57BL/6, mouse plasma, IV, 3 mg/kg, read-out: AUCINF_obs): 5340 ng·h/mL
AUC(0-t) [4, 8]: 12600 ng·h/mL
Cmax at 5 min [4, 8]: 3510 ng/mL
half-life [4, 8]: 2.05 h
AUC(0-inf) ([4]; female, C57BL/6, mouse plasma, PO, 10 mg/kg, read-out: AUCINF_obs): 12600 ng·h/mL
AUC_% Extrap_obs ([4]; mouse plasma, IV, 3 mg/kg): 2.45%
Cl_obs ([4]; mouse plasma, IV, 3 mg/kg): 561.75 mL/h/kg
Vz_obs ([4]; mouse plasma, IV, 3 mg/kg): 1784.9 mL/kg
AUC_% Extrap_obs ([4]; mouse plasma, PO, 10 mg/kg): 0.05%
Cl_obs ([4]; mouse plasma, PO, 10 mg/kg): 795.88 mL/h/kg
Vz_obs ([4]; mouse plasma, PO, 10 mg/kg): 2356.41 mL/kg
SMILES: O=C(COc1cnc(N[C@H]2CC[C@@H](Oc3nc(N4CCOCC4)cc4ncccc34)CC2)nc1)N1CCOCC1 [Compound 61, 1-Morpholino-2-((2-(((1s,4s)-4-((7-morpholino-1,6-naphthyridin-5-yl)oxy)cyclohexyl)amino)pyrimidin-5-yl)oxy)ethan-1-one]
